The values that follow come from patent EP4445909B1, “PHARMACEUTICAL FORMULATION CONSISTING OF C-PEPTIDE COMBINED WITH A BISPHOSPHONATE IN A SINGLE FORM AND ITS USE IN THE TREATMENT OF OSTEOSARCOPENIA” (Università Degli Studi Magna Graecia di Catanzaro, priority 2023, dated 2026).

Common to all, as to format: in vivo
The test system of one assay is bone. Description: Micro-CT of trabecular bone in diabetic rats after C-peptide administration. The settings on record: 72 nmol/kg/24 h, compared to the diabetes only group (D-CTR).
The subject of another assay is serum ubiquitin. Description: Serum ubiquitin in diabetic rats after C-peptide administration. Conditions: 72 nmol/kg/24 h for 42 days.
The test system of assay [1] is muscle fibers of the Gastrocnemius (GC), Thiabialis (TA) and the long finger extensor muscle (EDL). In words: Muscle fibre morphometry (CSA, perimeter, Minimum Feret diameter) after C-Peptide administration in diabetic rats. The settings on record: 72 nmol/kg/24 h for 42 days. The protocol:
The experimental tests carried out by the Applicant have shown that the administration of 72 nmol/kg/24 h of C-Peptide for 42 days improves the cross-sectional area (CSA), the perimeter and the Minimum Feret diameter of the muscle fibers of the Gastrocnemius (GC), Thiabialis (TA) and the long finger extensor muscle (EDL) in diabetic rats. Specifically, the mean CSA of the GC fibers decreased by 39.5% in the diabetic group, while only 6.6% in the rats of the C-peptide group. The CSA of the TA and EDL muscles was reduced, in the C-peptide group, by 10% and 11%, respectively, while a reduction of 65% and 45% occurred in the diabetic group, compared to the control animals. Similar results were obtained with the other parameters (perimeter and Minimum Feret diameter).

Take C-peptide: in the assay with bone (p=0.01), the trabecular spaces entry is reported as “reduction”. The trabecular thickness entry in the assay on bone (p=0.04) is “better”. The “serum ubiquitin, induced by diabetes” value in the assay with serum ubiquitin was “prevents the increase”. The “cross-sectional area (CSA), perimeter and Minimum Feret diameter of the muscle fibers of GC, TA and EDL” value in assay [1] is listed as “improves”. Further, the “mean CSA of the GC fibers decreased” value in assay [1] (Gastrocnemius, diabetic group decreased by 39.5%) is reported as 6.6%. In assay [1] (compared to the control animals, diabetic group 45%), the “CSA of the EDL muscle reduced” value came to 11%. For the same substance, the “CSA of the TA muscle reduced” value in assay [1] (compared to the control animals, diabetic group 65%) was 10%.
